Biological target: T1, Histone deacetylase 11 (Homo sapiens, UniProt Q96DB2)
T1 sequence (Q96DB2 whole entry): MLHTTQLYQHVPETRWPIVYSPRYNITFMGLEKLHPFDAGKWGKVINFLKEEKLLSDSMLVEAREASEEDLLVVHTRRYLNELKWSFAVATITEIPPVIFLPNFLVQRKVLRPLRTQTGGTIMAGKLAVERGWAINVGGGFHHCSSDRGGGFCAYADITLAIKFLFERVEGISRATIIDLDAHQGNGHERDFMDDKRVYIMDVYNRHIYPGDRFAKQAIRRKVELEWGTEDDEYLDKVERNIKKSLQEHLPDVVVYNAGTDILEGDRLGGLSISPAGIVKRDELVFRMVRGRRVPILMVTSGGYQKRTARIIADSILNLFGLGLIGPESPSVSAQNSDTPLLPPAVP
Assay: HDAC Inhibition Assays: This example describes in vitro inhibition properties of exemplary HDAC11 inhibitors for various HDACs. HDAC inhibition assays were performed using an electrophoretic mobility shift assay at Nanosyn, Inc. (Santa Clara, Calif.). Full length human recombinant HDAC proteins were expressed in the baculoviral system and purified by affinity chromatography. A human recombinant HDAC3 was co-expressed with nuclear receptor corepressor (Ncor2). The following peptide substrates were used: FAM-RHKK(Ac)-NH2 for HDAC3, HDAC6 and HDAC8; FITC-H3K27(Ac)-NH2 for HDAC1, HDAC2 and HDAC10; FAM-RHKK(tri-fluor-Ac)-NH2 for HDAC4, HDAC5, HDAC7, HDAC9 and HDAC11. Reactions consisting of compound, enzyme, and substrate were performed in reaction buffer (comprised of 100 mM HEPES, pH7.5, 25 mM KCl, 0.1% bovine serum albumin, 0.01% Triton X-100) at 25° C. and quenched by the addition of termination buffer (100 mM HEPES, pH7.5, 0.01% Triton X-100, 0.05% SDS). The fluorescence intensity of the electrophoretically separated de-acetylated product and substrate peptide were measured and analyzed using the LabChip® 3000 microfluidic electrophoresis instrument (Perkin Elmer/Caliper Life Sciences). The IC50 values of inhibitors were determined by fitting the %-inhibition curves with 4 parameter dose-response model using XLfit 4 software (IDBS).

- IC50: < 500 nM
Structure (SMILES): N#Cc1cc2nc(Nc3cccc(C(=O)NO)c3)[nH]c2cc1C(F)(F)F
